Converted amounts (≈) assume the structure as drawn. “And” between values parts separate entries of the source, which are not always exact repeats. Equal values may be shown once.
Tests used:
MRSA (ATCC 33591) = assay: Rabbit ischemic ear wound model of infection by MRSA, topical treatment; type: in vivo, New Zealand White rabbits; conditions: for % wound closure / wound size (mean) / Wound size (mm2): Fig 2a; for Wound size (mm2): individual wounds
Description: New Zealand White rabbits from Charles River were employed for this study. Both male and female rabbits were used; sample size prevented disaggregation of data by sex. Investigators were blinded to group allocation, data collection, and data analysis. Food and water were given ad libidum and animals were acclimatized for 7 days with photoperiods of alternating 12 h light and dark at 21 °C in relative humidity of 40–50%. The formulation for delivery of DNM compounds was Glaxal base (WellSpring Pharmaceutical Canada Corp., Oakville, Canada). Formulation was performed by dissolving compound in Glaxal base to give final concentrations of 1% or 2% DNM compound (w/v). The analgesic (Buprenex 0.02 mg/kg sc) and anesthesia (isoflurane (0.5–5% with oxygen carrier 0.5–2 L/min) were used as required during procedures. An ischemia wound healing model was conducted surgically. Each wound was inoculated with 50 μl of 2 × 10^7 CFU/mL MRSA (ATCC #33591) and dressed. After 1 day, wounds were treated with either 50 μl control cream containing vehicle or 50 μl cream containing compound daily. Wounds were assessed and observations recorded using the Draize scoring system. Digital photographs of each wound were obtained and documented.

[1] = Dermal pharmacokinetics, serum concentration after topical application; type: in vivo, Sprague Dawley rats
Description: We determined that the maximum concentration present in serum was 1.02 μg/mL at 7.0 h after application with a time½ of 8.7 h. By 24 h the concentration of DNM0547 had decreased to 0.06 μg/mL and by 48 h was 0.03 μg/mL (Supplementary Fig. 8).
Rat PK. […]
Supplementary Figure 8. Dermal PK of DNM0547. a, 2% DNM0547 was applied to shaved skin of Sprague Dawley rats and DNM0547 concentration in serum was determined over time (n=5). b, PK parameters for DNM0547 in serum. CV, coefficient variation was determined using Graphpad Prism.
(1 picture or pasted object on this page, not shown here)

AcpS_R48A = target: T1, AcpS_R48A (Escherichia coli, UniProt P24224, R48A); assay: Inhibition of purified AcpS site-directed mutant by drug (Suppl Fig 3 source data); type: biochemical; conditions: for AcpS rate nM/min, Mean / AcpS rate: Suppl Fig 3, [AcpS_R48A] 5 nM; for AcpS rate: replicates
T1 construct: 6x-His (C); made in house

E. coli (D22) = assay: MIC, outer-membrane-permeable lpxC point mutant; type: cell-based; conditions: Escherichia coli
Source text: The outer membrane of Gram-negative bacteria is a robust permeability barrier that prevents many antibiotics from entering Gram-negative cells[46],[47]. The outer leaflet of this outer membrane is primarily composed of the unique lipid lipopolysaccharide (LPS). Strains of E. coli with point mutations in genes coding for LPS biosynthetic enzymes have been isolated that enable some antibiotics to effectively pass through the outer membrane enabling activity against these strains of E. coli[48]–[54]; one such strain is E. coli (D22) which contains a point mutation in the lpxC gene.
The medium employed for the assay was Mueller Hinton II Broth (MHB II; Becton-Dickinson, Sparks, MD, USA). Agar plates used for the organisms were trypticase soy agar plus 5% sheep blood (BD; Sparks, MD, USA). MIC assay plates were prepared using the CLSI broth microdilution procedure. Automated liquid handlers (Multidrop 384, Biomek 2000 and Biomek FX) were used to conduct serial dilutions and liquid transfers. A standardized inoculum of each organism was prepared per CLSI methods. Suspensions were prepared to equal a 0.5 McFarland standard, followed by a 1:20 dilution in test media. […] The microplates were viewed from the bottom using a plate viewer and the MIC was read. The MIC was recorded as the lowest concentration of drug that inhibited visible growth of the organism. […]

[2] = 2% on shaved skin, serum, mean, n=5

T1 sequence (P24224 whole entry R48A): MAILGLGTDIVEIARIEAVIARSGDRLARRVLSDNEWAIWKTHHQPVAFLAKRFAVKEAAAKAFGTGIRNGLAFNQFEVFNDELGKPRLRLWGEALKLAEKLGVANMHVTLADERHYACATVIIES

## CC(C)c1cc(Cl)ccc1-c1cc(-c2nnn[nH]2)c(-c2ccc(Cl)cc2C(C)C)s1 [DNM0547]
MRSA (ATCC 33591); Day 1
  % wound closure: 0%
  wound size (mean): 30.44 mm2
  Wound size (mm2): 29.51 mm2 and 29.83 mm2 and 28.32 mm2 and 27.53 mm2 and 32.52 mm2 and 34.03 mm2 and 26.69 mm2 and 25.2 mm2 and 36.13 mm2 and 34.64 mm2
MRSA (ATCC 33591); Day 3
  % wound closure: 2.62%
  wound size (mean): 29.642 mm2
  Wound size (mm2): 31.06 mm2 and 29.08 mm2 and 27.25 mm2 and 24.3 mm2 and 31.24 mm2 and 33.16 mm2 and 27.53 mm2 and 25.7 mm2 and 33.48 mm2 and 33.62 mm2
MRSA (ATCC 33591); Day 6
  % wound closure: 5.42%
  wound size (mean): 28.797 mm2
  Wound size (mm2): 28.85 mm2 and 31.18 mm2 and 26.33 mm2 and 24.01 mm2 and 30.73 mm2 and 32.69 mm2 and 26.4 mm2 and 21.93 mm2 and 33.19 mm2 and 32.66 mm2
MRSA (ATCC 33591); Day 9
  % wound closure: 32.45%
  wound size (mean): 20.563 mm2
  Wound size (mm2): 23.09 mm2 and 21.11 mm2 and 22.61 mm2 and 20.99 mm2 and 19.44 mm2
MRSA (ATCC 33591); Day 12
  % wound closure: 53.18%
  wound size (mean): 14.254 mm2
MRSA (ATCC 33591); Day 15
  % wound closure: 73.94%
  wound size (mean): 7.93 mm2
  Wound size (mm2): 10.17 mm2 and 8.72 mm2 and 14.95 mm2 and 20.1 mm2 and 0.9 mm2 and 0.08 mm2 and 1.02 mm2 and 4 mm2 and 10.8 mm2 and 8.56 mm2
MRSA (ATCC 33591); Day 18
  % wound closure: 87.25%
  wound size (mean): 3.88 mm2
  Wound size (mm2): 8.29 mm2 and 0.93 mm2 and 7.78 mm2 and 10.81 mm2 and 0.41 mm2 and 0 mm2 and 0.53 mm2 and 2.2 mm2 and 3.09 mm2 and 4.76 mm2
MRSA (ATCC 33591); Day 21
  % wound closure: 97.93%
  wound size (mean): 0.636 mm2
  Wound size (mm2): 0 mm2 (8×) and 5.12 mm2 and 1.24 mm2
MRSA (ATCC 33591); quantitative microbiology at day 14, topical
  reduction in bacterial survival as compared to vehicle control: > 99%
MRSA (ATCC 33591); topical 2%
  bacteria in the wound (CFUs per gram of tissue at end of study): effectively eliminated bacteria from the wound
  day of complete wound closure: ≤ 21 days
MRSA (ATCC 33591); topical for 14 days, versus vehicle control
  wound closure: significantly improved wound closure
[1]; 2% applied topically
  maximum concentration present in serum: 1.02 µg/mL
[1]; [2]
  Concmax: 1020 ng/mL
  Time1/2: 8.78 h and 8.7 h
  Timemax: 7.00 h and 7.0 h
[1]; Sprague Dawley, rat, in vivo, 2 %, Suppl Fig 8, Hour 6, individual animals, read-out: DNM0547 conc
  concentration at 6 h: 261 ng/mL
[1]; Sprague Dawley, rat, in vivo, 2 %, Suppl Fig 8, Hour 12, individual animals, read-out: DNM0547 conc
  concentration at 12 h: 386 ng/mL
[1]; Sprague Dawley, rat, serum, topical or ocular, 2% applied topically, read-out: time of maximum serum concentration after application
  Tmax: 7 h
[1]; Sprague Dawley, rat, serum, topical, 2 %, 2% applied topically, 24 h
  concentration at 24 h: 60 ng/mL
[1]; Sprague Dawley, rat, serum, topical, 2 %, 2% applied topically, 48 h
  concentration at 48 h: 30 ng/mL
[1]; Suppl Fig 8, Hour 3, individual animals
  DNM0547 conc: 387 ng/mL and 281 ng/mL and 713 ng/mL and 1147 ng/mL and 236 ng/mL and 356 ng/mL
[1]; Suppl Fig 8, Hour 6, individual animals
  DNM0547 conc: 449 ng/mL and 1172 ng/mL and 560 ng/mL and 656 ng/mL and 1620 ng/mL
[1]; Suppl Fig 8, Hour 9, individual animals
  DNM0547 conc: 623 ng/mL and 414 ng/mL and 681 ng/mL and 201 ng/mL and 177 ng/mL and 767 ng/mL
[1]; Suppl Fig 8, Hour 12, individual animals
  DNM0547 conc: 477 ng/mL and 879 ng/mL and 564 ng/mL and 277 ng/mL and 158 ng/mL
[1]; Suppl Fig 8, Hour 24, individual animals
  DNM0547 conc: 65 ng/mL and 33 ng/mL and 92 ng/mL and 38 ng/mL and 45 ng/mL and 60 ng/mL
[1]; Suppl Fig 8, Hour 48, individual animals
  DNM0547 conc: 46 ng/mL and 21 ng/mL and 55 ng/mL and 17 ng/mL and 16 ng/mL and 14 ng/mL
AcpS_R48A; Drug Conc 1 uM
  AcpS rate nM/min, Mean: 97.88 nM/min
  AcpS rate: 102.89 nM/min and 96.62 nM/min and 94.12 nM/min
AcpS_R48A; Drug Conc 2 uM
  AcpS rate nM/min, Mean: 93.89 nM/min
  AcpS rate: 97.97 nM/min and 91.69 nM/min and 92.02 nM/min
AcpS_R48A; Drug Conc 4 uM
  AcpS rate nM/min, Mean: 94.54 nM/min
  AcpS rate: 95.47 nM/min and 93.88 nM/min and 94.27 nM/min
AcpS_R48A; Drug Conc 8 uM
  AcpS rate nM/min, Mean: 92.47 nM/min
  AcpS rate: 92.76 nM/min and 91.81 nM/min and 92.85 nM/min
AcpS_R48A; Drug Conc 16 uM
  AcpS rate nM/min, Mean: 48.14 nM/min
  AcpS rate: 58.48 nM/min and 54.48 nM/min and 31.45 nM/min
AcpS_R48A; Drug Conc 32 uM
  AcpS rate nM/min, Mean: 20.22 nM/min
  AcpS rate: 22.18 nM/min and 16.02 nM/min and 22.44 nM/min
AcpS_R48A; Drug Conc 64 uM
  AcpS rate nM/min, Mean: 10.15 nM/min
  AcpS rate: 9.77 nM/min and 11.77 nM/min and 8.90 nM/min
AcpS_R48A; Drug Conc 128 uM
  AcpS rate nM/min, Mean: 4.77 nM/min
  AcpS rate: 4.67 nM/min (2×) and 4.95 nM/min
AcpS_R48A; read-out: % of untreated, Suppl Fig 3, [AcpS_R48A] 5 nM, Drug Conc 1 uM, replicates
  remaining activity at 1 µM: 106%
AcpS_R48A; read-out: % of untreated, Suppl Fig 3, [AcpS_R48A] 5 nM, Drug Conc 2 uM, replicates
  remaining activity at 2 µM: 101%
AcpS_R48A; read-out: % of untreated, Suppl Fig 3, [AcpS_R48A] 5 nM, Drug Conc 4 uM, replicates
  remaining activity at 4 µM: 98.7%
AcpS_R48A; read-out: % of untreated, Suppl Fig 3, [AcpS_R48A] 5 nM, Drug Conc 8 uM, replicates
  remaining activity at 8 µM: 95.9%
AcpS_R48A; read-out: % of untreated, Suppl Fig 3, [AcpS_R48A] 5 nM, Drug Conc 32 uM, replicates
  remaining activity at 32 µM: 22.9%
AcpS_R48A; read-out: % of untreated, Suppl Fig 3, [AcpS_R48A] 5 nM, Drug Conc 64 uM, replicates
  remaining activity at 64 µM: 10.1%
AcpS_R48A; read-out: % of untreated, Suppl Fig 3, [AcpS_R48A] 5 nM, Drug Conc 128 uM, replicates
  remaining activity at 128 µM: 4.83%
E. coli (D22)
  MIC: 32 µg/mL (≈ 70 µM)

From PMC11436758, “Computer-aided drug design to generate a unique antibiotic family” (Nature Communications, 2024)
